Here are results for one compound from patent US12012415B2, “Compositions and methods for the diagnosis, treatment and prevention of neoplastic and neurological disorders” (AscentGene, Inc., priority 2018, dated 2024).

For one assay, the target named is PC4 protein (Homo sapiens, UniProt P53999). Put plainly: PC4-DNA binding interference. Conditions: high-throughput screen platform. On the procedure:
A number of small molecules were incubated with PC4 protein and DNA binding assessed.

The next assay deals with U87 cells. Nature of the assay: Cell viability, combination with TMZ in U87 cells. Format: cell-based, human. The method, then: Human glioma cell lines of U251, SF539, SF295 were obtained from NCI/DTP and U87 was obtained from ATCC. U251, SF539, and SF295 cells were grown in RPMI (Gibco) medium; U87 cells were grown in EMEM medium (ATCC), all the cells culture media containing 10% FBS and 100 unit/ml of Penicillin-Streptomycin, and cells were incubated in a 37 °C/5% CO2 humidified hood. One day before chemical compounds treatment, four kinds of cells U251, SF539, SF295, and U87 were seeded in 96-well plates at 10,000 cells/well (100 μl) with triplicate. The culture medium was removed and cells were treated with a series different concentration of AG1601/in correspond fresh media. Following an additional incubation of 48 hours at 37° C./5% CO2, cells proliferation assay was performed with Cell Counting Kit-8 (Dojindo Laboratories, #CK04), added 10 μl of reagent to the cells in each well after replacing with 100 μl of fresh media, mix well, following an additional 2 to 3 hours incubation at 37° C./5% CO2, read wavelengths of OD450 nm in a 96-well plate reader (Victor 2, 1420 Multilabel counter), data analysis were performed with Excel and it is platted as relative mean OD450 nm+/−standard error of the mean.
Cells were treated with indicated content of AG-1601 for 48 hours, then followed by performance of cell viability assays. […]

Assay [1] concerns Rat glioblastoma cell lines C6. Put plainly: Cell growth of glioblastoma cell line C6. The following applies: cell growth rate from number of live cells. Format: cell-based. On the procedure: Rat glioblastoma cell lines C6 (A) and human non-small cell lung cancer cell line H841 (B) were grown in the proper medium and treated with different concentration of drug candidate AG-1031 (P) and AG-1503 (#3). Cell growth rate was calculated based on the number of live cells as compared to concentration in M of selected small molecules of the invention (see FIGS. 6A and 6B).

Assay [2] has as its system Aβ1-42-induced cognitive impairments. Put plainly: Novel-object recognition (NOR) test in Aβ1-42 AD rat model. Format: in vivo, rats. The method, then:
Aβ1-42 (Sigma-Aldrich, St. Louis, MO, USA;) was dissolved in double-distilled water at the concentration of 5 μg/μl, and incubated at 37° C. for one week before surgery. The rats were randomly divided into four groups as Sham (n=8), Sham+AG-1601 (n=8), Aβ1-42 (n=8) and Aβ1-42+AG-1601 (n=8). The Alzheimer's disease rat models were established by intracerebroventricular (i.c.v.) injection of Aβ1-42 aggregates. The animals were anesthetized with intraperitoneal injection of pentobarbital sodium (50 mg/kg) and placed in a stereotaxic apparatus (Narishige, Japan). The head skin of the rat was opened and two small holes were drilled on both sides of skull following the coordinates: 0.8 mm posterior to bregma, +1.4 mm lateral to sagittal suture, 4.0 mm beneath the surface of brain. Aβ1-42 (2.0 μl per side) was injected bilaterally into the lateral ventricles through micro-syringe. The needle was taken out after 5 minutes of the injection to ensure the aggregates were infused completely. […] The short- and long-term memory functions of the animals were evaluated by using the NOR test, which were carried out after the open field test. […] A recognition index was calculated by the percentage of TB/(TA+TB) (TA: time spent exploring the familiar object A; TB: time spent exploring the novel object B). […]

Consider `C=CC1=C(C)c2cc3[nH]c(cc4nc(cc5[nH]c(cc1n2)c(C)c5C=C)C(C)=C4CCC(=O)O)c(CCC(=O)NCCCc1ccccc1)c3C` [AG-1601, 3-(2,8,13,18-tetramethyl-3-(3-oxo-3-((3-phenylpropyl)amino)propyl)-12,17-divinylporphyrin-7-yl)propanoic acid], for which the PC4 inhibition result at PC4 protein is on record as “strong PC4 inhibitor”. In the assay on U87 cells, the “potentiation of the effect of TMZ” value was “potentiates the effect of TMZ”. Also, the “inhibition of growth of glioma cell line C6” value in assay [1] is reported as “even better inhibitory activity on growth of glioma cells compared to AG-1503”. Further, the “recognition index, short-term memory test” value in assay [2] (1 h after training, vs Aβ1-42 group) is given as “significant increase in recognition index”. Further, in assay [2] (Aβ42 induced AD rat model), the “cognitive impairments in NOR test” value was “significantly reversed cognitive impairments”.
